This passage reports IC50 results from patent publication US11981658B2, “Substituted aminopyridine compounds as EGFR inhibitors” (YUHAN CORPORATION, priority 2021, dated 2024).

In one test the target is EGFR Del19/T790M/C797S (Homo sapiens, UniProt P00533, C797S/DEL746-750/T790M). The experiment in a line: Biochemical EGFR kinase inhibition assay (Lance Ultra TR-FRET), triple mutant del19/T790M/C797S. The method, boiled down: (§1)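 Kinase activity is measured by TR-FRET phosphopeptide detection. Compounds span 0.003 μM to 10 μM; the 1 h reaction at room temperature is quenched with EDTA, then labelled antibody (2 nM) is incubated 60 min before reading.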
Chain of EGFR Del19/T790M/C797S (P00533 with tags, fused parts or gaps DEL746-750/T790M/C797S): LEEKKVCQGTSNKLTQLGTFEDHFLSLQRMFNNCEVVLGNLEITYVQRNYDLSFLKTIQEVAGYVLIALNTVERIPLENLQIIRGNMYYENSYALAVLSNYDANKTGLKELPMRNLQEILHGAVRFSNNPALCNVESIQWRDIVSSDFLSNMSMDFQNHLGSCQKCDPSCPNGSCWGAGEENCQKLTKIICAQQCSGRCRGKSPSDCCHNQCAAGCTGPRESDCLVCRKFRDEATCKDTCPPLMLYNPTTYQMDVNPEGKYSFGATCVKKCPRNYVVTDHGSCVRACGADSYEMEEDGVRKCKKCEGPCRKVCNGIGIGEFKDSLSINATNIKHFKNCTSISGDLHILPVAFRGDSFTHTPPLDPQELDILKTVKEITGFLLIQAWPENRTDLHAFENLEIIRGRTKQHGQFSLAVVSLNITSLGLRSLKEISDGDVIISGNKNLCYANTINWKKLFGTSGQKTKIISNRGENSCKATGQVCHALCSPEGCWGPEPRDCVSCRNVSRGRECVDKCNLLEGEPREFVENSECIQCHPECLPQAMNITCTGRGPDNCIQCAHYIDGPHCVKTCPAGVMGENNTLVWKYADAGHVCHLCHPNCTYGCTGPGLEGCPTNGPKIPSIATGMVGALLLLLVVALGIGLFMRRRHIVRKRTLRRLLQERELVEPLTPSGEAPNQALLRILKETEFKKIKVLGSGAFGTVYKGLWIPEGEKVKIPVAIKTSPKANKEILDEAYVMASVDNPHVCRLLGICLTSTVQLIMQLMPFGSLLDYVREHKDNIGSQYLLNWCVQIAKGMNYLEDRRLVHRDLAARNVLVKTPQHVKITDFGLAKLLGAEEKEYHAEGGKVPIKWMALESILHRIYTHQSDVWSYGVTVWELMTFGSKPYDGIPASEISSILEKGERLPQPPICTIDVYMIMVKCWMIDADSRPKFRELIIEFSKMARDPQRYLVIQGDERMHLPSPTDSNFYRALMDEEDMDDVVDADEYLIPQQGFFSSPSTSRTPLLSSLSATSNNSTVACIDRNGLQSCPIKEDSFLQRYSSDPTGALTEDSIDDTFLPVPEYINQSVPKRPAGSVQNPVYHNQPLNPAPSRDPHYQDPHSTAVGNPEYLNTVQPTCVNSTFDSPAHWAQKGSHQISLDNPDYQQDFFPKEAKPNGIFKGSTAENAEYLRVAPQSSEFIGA
Background: In TR-FRET formats the signal depends on donor and acceptor labels being close together.

The target of the next test is EGFR L858R/T790M/C797S (Homo sapiens, UniProt P00533, C797S/L858R/T790M). The experiment in a line: Biochemical EGFR kinase inhibition assay (Lance Ultra TR-FRET), triple mutant L858R/T790M/C797S. The gist of the method:
as §1

A further test deals with EGFR Del19/C797S (Homo sapiens, UniProt P00533, C797S/DEL746-750). The experiment in a line: Biochemical EGFR kinase inhibition assay (Lance Ultra TR-FRET), double mutant del19/C797S. The method, boiled down: as §1
Chain of EGFR Del19/C797S (P00533 with tags, fused parts or gaps DEL746-750/C797S): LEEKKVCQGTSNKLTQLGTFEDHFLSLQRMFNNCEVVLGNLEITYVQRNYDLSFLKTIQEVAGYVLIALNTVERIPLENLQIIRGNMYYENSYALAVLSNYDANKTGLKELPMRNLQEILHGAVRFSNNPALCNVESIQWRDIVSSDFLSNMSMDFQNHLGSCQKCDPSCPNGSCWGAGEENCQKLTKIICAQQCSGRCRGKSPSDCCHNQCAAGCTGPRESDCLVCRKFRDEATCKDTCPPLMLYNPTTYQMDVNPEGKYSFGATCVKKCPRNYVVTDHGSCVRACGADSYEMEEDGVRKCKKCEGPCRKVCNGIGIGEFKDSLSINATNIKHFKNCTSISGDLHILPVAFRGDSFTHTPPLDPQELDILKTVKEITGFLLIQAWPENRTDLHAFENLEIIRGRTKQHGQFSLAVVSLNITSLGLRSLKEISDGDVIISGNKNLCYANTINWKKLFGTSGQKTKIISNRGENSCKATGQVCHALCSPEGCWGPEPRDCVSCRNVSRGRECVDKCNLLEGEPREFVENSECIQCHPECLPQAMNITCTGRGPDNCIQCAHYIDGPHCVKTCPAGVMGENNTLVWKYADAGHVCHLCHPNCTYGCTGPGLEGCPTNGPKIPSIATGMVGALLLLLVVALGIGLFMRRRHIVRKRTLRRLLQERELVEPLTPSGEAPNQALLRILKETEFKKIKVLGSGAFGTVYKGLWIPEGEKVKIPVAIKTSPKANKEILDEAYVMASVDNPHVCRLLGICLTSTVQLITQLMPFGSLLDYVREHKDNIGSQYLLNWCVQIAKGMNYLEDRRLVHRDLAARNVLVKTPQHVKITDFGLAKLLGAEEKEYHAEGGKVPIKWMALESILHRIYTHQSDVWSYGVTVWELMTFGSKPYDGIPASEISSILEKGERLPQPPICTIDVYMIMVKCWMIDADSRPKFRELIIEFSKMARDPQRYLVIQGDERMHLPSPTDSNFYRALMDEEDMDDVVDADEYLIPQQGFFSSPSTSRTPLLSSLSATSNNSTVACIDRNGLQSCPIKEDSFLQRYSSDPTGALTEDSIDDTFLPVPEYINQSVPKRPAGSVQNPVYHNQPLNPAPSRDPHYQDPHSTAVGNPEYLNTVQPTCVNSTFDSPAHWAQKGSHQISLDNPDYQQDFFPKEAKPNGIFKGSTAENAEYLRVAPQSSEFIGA
For the next test, the target named is EGFR L858R/C797S (Homo sapiens, UniProt P00533, C797S/L858R). The experiment in a line: Biochemical EGFR kinase inhibition assay (Lance Ultra TR-FRET), double mutant L858R/C797S. The gist of the method: as §1
Chain of EGFR L858R/C797S (P00533 25-1210 C797S/L858R): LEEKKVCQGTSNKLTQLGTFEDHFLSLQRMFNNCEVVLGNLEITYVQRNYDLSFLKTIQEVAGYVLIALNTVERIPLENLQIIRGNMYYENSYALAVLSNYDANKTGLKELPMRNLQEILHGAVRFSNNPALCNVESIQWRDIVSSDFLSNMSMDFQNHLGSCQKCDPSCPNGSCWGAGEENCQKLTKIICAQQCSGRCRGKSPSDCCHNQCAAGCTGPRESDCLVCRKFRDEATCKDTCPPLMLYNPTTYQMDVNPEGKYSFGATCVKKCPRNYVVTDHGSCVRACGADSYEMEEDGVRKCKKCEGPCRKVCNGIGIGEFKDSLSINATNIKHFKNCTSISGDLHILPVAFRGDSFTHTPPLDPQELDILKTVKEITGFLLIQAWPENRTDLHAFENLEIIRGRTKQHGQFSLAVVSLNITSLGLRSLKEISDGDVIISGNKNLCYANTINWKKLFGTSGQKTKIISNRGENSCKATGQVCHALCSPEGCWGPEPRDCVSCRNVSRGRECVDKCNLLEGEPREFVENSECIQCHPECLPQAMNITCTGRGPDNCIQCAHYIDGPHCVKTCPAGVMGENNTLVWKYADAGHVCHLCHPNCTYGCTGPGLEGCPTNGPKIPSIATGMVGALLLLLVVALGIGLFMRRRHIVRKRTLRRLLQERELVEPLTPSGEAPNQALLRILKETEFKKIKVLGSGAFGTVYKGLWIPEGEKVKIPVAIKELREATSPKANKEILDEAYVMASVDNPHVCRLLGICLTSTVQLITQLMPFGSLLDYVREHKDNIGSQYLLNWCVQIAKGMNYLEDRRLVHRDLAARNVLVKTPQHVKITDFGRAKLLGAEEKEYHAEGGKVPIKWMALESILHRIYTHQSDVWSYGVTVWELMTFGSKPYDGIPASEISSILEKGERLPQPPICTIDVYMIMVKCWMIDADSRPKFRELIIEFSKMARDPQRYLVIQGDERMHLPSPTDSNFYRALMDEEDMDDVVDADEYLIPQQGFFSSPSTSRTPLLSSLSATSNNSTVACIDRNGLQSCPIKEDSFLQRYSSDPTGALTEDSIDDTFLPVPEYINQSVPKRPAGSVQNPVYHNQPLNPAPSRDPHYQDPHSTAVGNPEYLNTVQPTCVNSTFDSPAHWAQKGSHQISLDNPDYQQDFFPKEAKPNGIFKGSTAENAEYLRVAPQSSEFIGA
A further test has as its target EGFR wildtype (WT) (Homo sapiens, UniProt P00533). The experiment in a line: Biochemical EGFR kinase inhibition assay (Lance Ultra TR-FRET), wildtype. The gist of the method:
as §1

The mark [1] stands for this setting: IC50 Del19/T790M/C797S (nM), 100 μM ATP.
Where [2] appears, read: Km ATP, read-out: IC50 Del19/T790M/C797S (nM), Km ATP.
Where [3] appears, read: IC50 L858R/T790M/C797S (nM), 100 μM ATP.
Setting [4] is: Km ATP, read-out: IC50 L858R/T790M/C797S (nM), Km ATP.
[5] abbreviates: IC50 Del19/C797S (nM), 100 μM ATP.
[6] abbreviates: Km ATP, read-out: IC50 Del19/C797S (nM), Km ATP.
[7] abbreviates: IC50 L858R/C797S (nM), 100 μM ATP.
Where [8] appears, read: Km ATP, read-out: IC50 L858R/C797S (nM), Km ATP.
The mark [9] stands for this setting: Km ATP, read-out: IC50 WT (nM), Km ATP.
Where [10] appears, read: ATP at Km, read-out: IC50 Del19/C797S (nM), Km ATP.
[11] abbreviates: ATP at Km, read-out: IC50 L858R/C797S (nM), Km ATP.
Where [12] appears, read: ATP at Km, read-out: IC50 WT (nM), Km ATP.

Each structure is given as a SMILES string. Like-named read-outs stand apart in the source and are kept apart here.

Chain of EGFR wildtype (WT) (P00533 25-1210): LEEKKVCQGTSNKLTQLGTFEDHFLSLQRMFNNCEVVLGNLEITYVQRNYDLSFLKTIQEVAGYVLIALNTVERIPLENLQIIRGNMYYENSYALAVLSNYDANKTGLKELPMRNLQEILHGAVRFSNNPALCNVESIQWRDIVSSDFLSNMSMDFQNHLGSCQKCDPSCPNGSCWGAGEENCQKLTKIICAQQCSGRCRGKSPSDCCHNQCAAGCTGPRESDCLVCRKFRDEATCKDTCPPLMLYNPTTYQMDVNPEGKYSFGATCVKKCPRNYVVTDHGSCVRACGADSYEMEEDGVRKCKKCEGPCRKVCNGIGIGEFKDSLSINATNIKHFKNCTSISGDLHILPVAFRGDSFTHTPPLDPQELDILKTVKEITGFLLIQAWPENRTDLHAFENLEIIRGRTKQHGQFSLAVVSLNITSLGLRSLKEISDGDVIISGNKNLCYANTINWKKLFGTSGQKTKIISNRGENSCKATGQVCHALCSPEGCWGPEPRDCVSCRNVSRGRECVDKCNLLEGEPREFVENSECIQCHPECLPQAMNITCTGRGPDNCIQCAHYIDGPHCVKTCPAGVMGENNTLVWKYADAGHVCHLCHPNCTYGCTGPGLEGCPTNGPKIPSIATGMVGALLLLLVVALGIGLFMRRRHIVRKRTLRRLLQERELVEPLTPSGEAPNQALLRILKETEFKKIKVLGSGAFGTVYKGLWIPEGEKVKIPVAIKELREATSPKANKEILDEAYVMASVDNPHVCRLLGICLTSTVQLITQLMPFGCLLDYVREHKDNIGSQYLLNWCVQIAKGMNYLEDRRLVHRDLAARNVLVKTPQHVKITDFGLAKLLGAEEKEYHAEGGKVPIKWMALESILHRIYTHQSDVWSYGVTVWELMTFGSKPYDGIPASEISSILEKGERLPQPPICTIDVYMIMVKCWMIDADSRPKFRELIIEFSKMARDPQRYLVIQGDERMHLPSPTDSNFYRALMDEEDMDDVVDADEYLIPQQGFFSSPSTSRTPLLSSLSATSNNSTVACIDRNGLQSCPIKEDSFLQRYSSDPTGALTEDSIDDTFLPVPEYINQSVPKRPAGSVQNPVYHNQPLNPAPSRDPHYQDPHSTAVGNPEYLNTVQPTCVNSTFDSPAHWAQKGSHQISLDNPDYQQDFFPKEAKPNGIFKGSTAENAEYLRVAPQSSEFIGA

Regarding `CC1(O)CCN(c2cc(Nc3ccnc(-c4cnn(S(=O)(=O)C5CC5)c4)n3)ncc2C#Cc2ncc(CN3CCOCC3)cn2)CC1` [Example 364, 1-(2-((2-(1-(Cyclopropylsulfonyl)-1H-pyrazol-4-yl)pyrimidin-4-yl)amino)-5-((5-(morpholinomethyl)pyrimidin-2-yl)ethynyl)pyridin-4-yl)-4-methylpiperidin-4-ol], the IC50 worked out at 0.3 nM on EGFR Del19/T790M/C797S (setting [1]); 0.2 nM on EGFR Del19/T790M/C797S (setting [2]); 0.6 nM at EGFR L858R/T790M/C797S (setting [3]); 0.1 nM at EGFR L858R/T790M/C797S (setting [4]); 1.3 nM at EGFR Del19/C797S (setting [5]); 1.4 nM at EGFR Del19/C797S (setting [6]). For the same molecule, the IC50 was 12.9 nM at EGFR L858R/C797S (setting [7]); 2.1 nM at EGFR L858R/C797S (setting [8]); 2530 nM against EGFR wildtype (WT) (IC50 WT (nM), 100 μM ATP); 7.5 nM on EGFR wildtype (WT) (setting [9]).
With `CC1(CO)CCN(c2cc(Nc3ccnc(-c4cnn(S(=O)(=O)C5CC5)c4)n3)ncc2C#CCCF)CC1` [Example 276, (1-(2-((2-(1-(Cyclopropylsulfonyl)-1H-pyrazol-4-yl)pyrimidin-4-yl)amino)-5-(4-fluorobut-1-yn-1-yl)pyridin-4-yl)-4-methylpiperidin-4-yl)methanol], the IC50 on EGFR Del19/T790M/C797S (ATP at Km, read-out: IC50 Del19/T790M/C797S (nM), Km ATP) amounted to 0.3 nM; at EGFR Del19/T790M/C797S (setting [1]), 0.7 nM; on EGFR L858R/T790M/C797S (ATP at Km, read-out: IC50 L858R/T790M/C797S (nM), Km ATP), 0.1 nM; on EGFR L858R/T790M/C797S (setting [3]), 0.5 nM; on EGFR Del19/C797S (setting [10]), 0.8 nM; against EGFR Del19/C797S (setting [5]), 1.3 nM. Moreover, the IC50 at EGFR L858R/C797S (setting [11]) was determined as 1.5 nM; on EGFR L858R/C797S (setting [7]), 16.5 nM; on EGFR wildtype (WT) (setting [12]), 7.5 nM; on EGFR wildtype (WT) (IC50 WT (nM), 100 μM ATP) it was 5290 nM.
In the case of `COC1(O)CCN(c2cc(Nc3ccnc(-c4cnn(S(=O)(=O)C5CC5)c4)n3)ncc2C#CC2CCN(C)C2)CC1` (stereo not shown) [Example 371, 1-(2-((2-(1-(Cyclopropylsulfonyl)-1H-pyrazol-4-yl)pyrimidin-4-yl)amino)-5-((1-methylpyrrolidin-3-yl)ethynyl)pyridin-4-yl)-4-methoxypiperidin-4-ol], the IC50 against EGFR Del19/T790M/C797S (setting [1]) worked out at 0.3 nM; on EGFR Del19/T790M/C797S (setting [2]), 0.3 nM; on EGFR L858R/T790M/C797S (setting [3]) it was 0.4 nM; at EGFR L858R/T790M/C797S (setting [4]) it was 0.1 nM; against EGFR Del19/C797S (setting [5]), 2.5 nM; on EGFR Del19/C797S (setting [6]) it was 1.5 nM. In addition, the IC50 amounted to 53.2 nM against EGFR L858R/C797S (setting [7]); 3.3 nM at EGFR L858R/C797S (setting [8]); 3730 nM against EGFR wildtype (WT) (IC50 WT (nM), 100 μM ATP); 9.4 nM at EGFR wildtype (WT) (setting [9]).
As for `CN(C)C[C@H]1CC[C@@H](Nc2cc(Nc3ccnc(-c4cnn(S(=O)(=O)C5CC5)c4)n3)ncc2C#Cc2cnn(CC3CC3)c2)CC1` [Example 309, 5-((1-(Cyclopropylmethyl)-1H-pyrazol-4-yl)ethynyl)-N^2-(2-(1-(cyclopropylsulfonyl)-1H-pyrazol-4-yl)pyrimidin-4-yl)-N^4-((1s,4s)-4-((dimethylamino)methyl)cyclohexyl)pyridine-2,4-diamine], the IC50 against EGFR Del19/T790M/C797S (setting [1]) came out at 1 nM; on EGFR L858R/T790M/C797S (setting [3]), 1.1 nM; on EGFR Del19/C797S (setting [10]), 2.4 nM; at EGFR Del19/C797S (setting [5]), 3.1 nM; on EGFR L858R/C797S (setting [11]), 1 nM; at EGFR L858R/C797S (setting [7]), 43.8 nM. Also, the IC50 was 24.3 nM at EGFR wildtype (WT) (setting [12]) and 7630 nM at EGFR wildtype (WT) (IC50 WT (nM), 100 μM ATP).
On to `CC(C)(CO)CNc1cc(Nc2ccnc(-c3cnn(S(=O)(=O)C4CC4)c3)n2)ncc1C#Cc1cnn(CCF)c1` [Example 40, 3-((2-((2-(1-Cyclopropylsulfonylpyrazol-4-yl)pyrimidin-4-yl)amino)-5-(2-(1-(2-fluoroethyl)pyrazol-4-yl)ethynyl)-4-pyridyl)amino)-2,2-dimethyl-propan-1-ol], for which the IC50 at EGFR Del19/T790M/C797S (setting [1]) is 4.8 nM; against EGFR L858R/T790M/C797S (setting [3]), 13.1 nM; at EGFR Del19/C797S (setting [5]), 49.1 nM; at EGFR L858R/C797S (setting [7]) it was 278 nM; on EGFR wildtype (WT) (IC50 WT (nM), 100 μM ATP), over 10000 nM.
